Results: ChEMBL document CHEMBL1201862, “PubChem BioAssay data set” (2004)
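A five-concentration, 48-hour dose response in 96-well plates underlies each endpoint, interpolated linearly between surrounding concentrations. At the GI50, growth is halved.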 The source made the active and inactive calls. No stated cut-off is given here; in the data, active = GI50 up to about 1.1 µM and inactive = higher.

Columns and labels:
Test in all cases: inhibition of tumour cell growth, NCI panel, 48 h
[1] = tested on: NCI-H522
[2] = tested on: SF-268
[3] = tested on: HCT-116
[4] = tested on: M14
[5] = tested on: TK-10
[6] = tested on: UO-31
[7] = tested on: CCRF-CEM
[8] = tested on: Malme-3M
[9] = tested on: RPMI-8226
[10] = tested on: Hs-578T
[11] = tested on: HOP-62
[12] = tested on: K562
[13] = tested on: UACC-62
[14] = tested on: SN12C
[15] = tested on: MOLT-4
[16] = tested on: UACC-257
[17] = tested on: ACHN
[18] = tested on: PC-3
[19] = tested on: A549
[20] = tested on: MCF7
[21] = tested on: OVCAR-8
[22] = tested on: HCT-15
[23] = tested on: SK-MEL-2
[24] = tested on: SF-539
[25] = tested on: HL-60
[26] = tested on: SK-MEL-5
[27] = tested on: T47D
[28] = tested on: OVCAR-4
[29] = tested on: SK-OV-3
[30] = tested on: HT-29
[31] = tested on: COLO 205
[32] = tested on: NCI/ADR-RES
[33] = tested on: DU-145
[34] = tested on: IGROV-1
[35] = tested on: SW-620
[36] = tested on: SF-295
[37] = tested on: A498
[38] = tested on: CAKI-1
[39] = tested on: OVCAR-3
[40] = tested on: KM12
[41] = tested on: EKVX
[42] = tested on: SNB-75
[43] = tested on: U-251
[44] = tested on: MDA-N
[45] = tested on: NCI-H23
[46] = tested on: NCI-H460
[47] = tested on: RXF 393
[48] = tested on: BT-549
[49] = tested on: MDA-MB-435
[50] = tested on: OVCAR-5
[51] = tested on: LOX IMVI
[52] = tested on: SNB-19
[53] = tested on: HCC 2998
[54] = tested on: MDA-MB-231
[55] = tested on: SK-MEL-28
[56] = tested on: HOP-92
[57] = tested on: 786-0
[58] = tested on: NCI-H226

How did the GI50 [1] turn out when `Cc1cc(O)cc(O)c1/N=N/c1ccc([N+](=O)[O-])cc1` was run?
The GI50 was 3.48 µM (inactive).

What about the GI50 [2] of the same compound?
The GI50 was 9.86 µM (inactive).

And the GI50 [3]?
Its GI50 is 3.51 µM (inactive).

What about the GI50 [4] of the same compound?
Its GI50 is 22.5 µM (inactive).

And the GI50 [5]?
The GI50 was 23.9 µM (inactive).

And the GI50 [6]?
The GI50 was 25 µM (inactive).

What about the GI50 [7] of the same compound?
Its GI50 is 5.69 µM (inactive).

What about the GI50 [8] of the same compound?
Its GI50 is 20.2 µM (inactive).

What about the GI50 [9] of the same compound?
Its GI50 is 5.22 µM (inactive).

And the GI50 [10]?
The GI50 was 27.5 µM (inactive).

And the GI50 [11]?
The GI50 was > 100 µM (inactive).

What about the GI50 [12] of the same compound?
The GI50 was 3.27 µM (inactive).

And the GI50 [13]?
The GI50 was 12.9 µM (inactive).

What about the GI50 [14] of the same compound?
Its GI50 is 5.71 µM (inactive).

What about the GI50 [15] of the same compound?
The GI50 was 5.3 µM (inactive).

And the GI50 [16]?
The GI50 was 25.1 µM (inactive).

And the GI50 [17]?
The GI50 was 17.1 µM (inactive).

And the GI50 [18]?
Its GI50 is 16 µM (inactive).

What about the GI50 [19] of the same compound?
Its GI50 is 30.1 µM (inactive).

What about the GI50 [20] of the same compound?
The GI50 was 16.5 µM (inactive).

What about the GI50 [21] of the same compound?
The GI50 was 17.9 µM (inactive).

What about the GI50 [22] of the same compound?
Its GI50 is 6.87 µM.

And the GI50 [23]?
Its GI50 is 15.4 µM (inactive).

What about the GI50 [24] of the same compound?
Its GI50 is 29 µM (inactive).

What about the GI50 [25] of the same compound?
The GI50 was 5.16 µM (inactive).

And the GI50 [26]?
Its GI50 is 12.6 µM (inactive).

And the GI50 [27]?
Its GI50 is 9.14 µM (inactive).

What about the GI50 [28] of the same compound?
The GI50 was 9.64 µM (inactive).

What about the GI50 [29] of the same compound?
Its GI50 is > 100 µM (inactive).

What about the GI50 [30] of the same compound?
The GI50 was 29.3 µM (inactive).

And the GI50 [31]?
Its GI50 is 30.5 µM (inactive).

And the GI50 [32]?
The GI50 was 10.6 µM (inactive).

And the GI50 [33]?
The GI50 was 22.9 µM (inactive).

And the GI50 [34]?
Its GI50 is 16.1 µM (inactive).

And the GI50 [35]?
Its GI50 is 5.96 µM (inactive).

What about the GI50 [36] of the same compound?
Its GI50 is > 100 µM (inactive).

What about the GI50 [37] of the same compound?
The GI50 was 18.4 µM (inactive).

And the GI50 [38]?
The GI50 was 14.2 µM (inactive).

What about the GI50 [39] of the same compound?
The GI50 was > 100 µM (inactive).

And the GI50 [40]?
The GI50 was 22.6 µM (inactive).

And the GI50 [41]?
Its GI50 is 22.3 µM (inactive).

What about the GI50 [42] of the same compound?
The GI50 was 18.5 µM (inactive).

And the GI50 [43]?
Its GI50 is 16.7 µM (inactive).

And the GI50 [44]?
Its GI50 is 15.6 µM (inactive).

And the GI50 [45]?
The GI50 was 17.7 µM (inactive).

What about the GI50 [46] of the same compound?
The GI50 was 19.4 µM (inactive).

And the GI50 [47]?
Its GI50 is 10.6 µM (inactive).

What about the GI50 [48] of the same compound?
Its GI50 is 15 µM (inactive).

And the GI50 [49]?
The GI50 was 13.8 µM (inactive).

And the GI50 [50]?
Its GI50 is 27.7 µM (inactive).

What about the GI50 [51] of the same compound?
Its GI50 is 23.7 µM (inactive).

And the GI50 [52]?
Its GI50 is 37.3 µM (inactive).

What about the GI50 [53] of the same compound?
The GI50 was 10.4 µM (inactive).

What about the GI50 [54] of the same compound?
The GI50 was 14.8 µM (inactive).

And the GI50 [55]?
The GI50 was 16.6 µM (inactive).

And the GI50 [56]?
The GI50 was 2.39 µM (inactive).

With `O=C1c2ccccc2S(=O)(=O)c2ccccc21` as the compound, how does the GI50 [1] read?
Its GI50 is > 100 µM (inactive).

And the GI50 [2]?
Its GI50 is > 100 µM (inactive).

And the GI50 [3]?
Its GI50 is > 100 µM (inactive).

What about the GI50 [4] of the same compound?
Its GI50 is > 100 µM (inactive).

What about the GI50 [5] of the same compound?
The GI50 was > 100 µM (inactive).

What about the GI50 [6] of the same compound?
Its GI50 is > 100 µM (inactive).

What about the GI50 [7] of the same compound?
The GI50 was > 100 µM (inactive).

What about the GI50 [8] of the same compound?
The GI50 was > 100 µM (inactive).

What about the GI50 [9] of the same compound?
Its GI50 is > 100 µM (inactive).

And the GI50 [10]?
The GI50 was 72.1 µM (inactive).

And the GI50 [11]?
Its GI50 is > 100 µM (inactive).

What about the GI50 [12] of the same compound?
Its GI50 is > 100 µM (inactive).

And the GI50 [13]?
The GI50 was > 100 µM (inactive).

And the GI50 [14]?
Its GI50 is > 100 µM (inactive).

And the GI50 [15]?
The GI50 was > 100 µM (inactive).

What about the GI50 [16] of the same compound?
Its GI50 is > 100 µM (inactive).

And the GI50 [17]?
The GI50 was > 100 µM (inactive).

And the GI50 [18]?
Its GI50 is > 100 µM (inactive).

What about the GI50 [19] of the same compound?
The GI50 was > 100 µM (inactive).

And the GI50 [57]?
The GI50 was > 100 µM (inactive).

And the GI50 [20]?
Its GI50 is > 100 µM (inactive).

What about the GI50 [21] of the same compound?
Its GI50 is > 100 µM (inactive).

And the GI50 [22]?
The GI50 was > 100 µM.

What about the GI50 [23] of the same compound?
Its GI50 is > 100 µM (inactive).

And the GI50 [24]?
The GI50 was > 100 µM (inactive).

And the GI50 [25]?
Its GI50 is > 100 µM (inactive).

And the GI50 [26]?
The GI50 was > 100 µM (inactive).

And the GI50 [27]?
Its GI50 is > 100 µM (inactive).

And the GI50 [28]?
Its GI50 is > 100 µM (inactive).

And the GI50 [29]?
Its GI50 is > 100 µM (inactive).

What about the GI50 [30] of the same compound?
Its GI50 is > 100 µM (inactive).

And the GI50 [31]?
The GI50 was > 100 µM (inactive).

And the GI50 [32]?
The GI50 was > 100 µM (inactive).

And the GI50 [33]?
Its GI50 is > 100 µM (inactive).

And the GI50 [34]?
The GI50 was > 100 µM (inactive).

What about the GI50 [35] of the same compound?
Its GI50 is > 100 µM (inactive).

And the GI50 [36]?
Its GI50 is > 100 µM (inactive).

What about the GI50 [37] of the same compound?
Its GI50 is > 100 µM (inactive).

And the GI50 [38]?
Its GI50 is > 100 µM (inactive).

And the GI50 [39]?
The GI50 was > 100 µM (inactive).

What about the GI50 [40] of the same compound?
Its GI50 is > 100 µM (inactive).

And the GI50 [41]?
The GI50 was 61.1 µM (inactive).

And the GI50 [42]?
The GI50 was > 100 µM (inactive).

What about the GI50 [43] of the same compound?
Its GI50 is > 100 µM (inactive).

And the GI50 [44]?
The GI50 was > 100 µM (inactive).

What about the GI50 [45] of the same compound?
The GI50 was > 100 µM (inactive).

What about the GI50 [46] of the same compound?
Its GI50 is > 100 µM (inactive).

And the GI50 [47]?
Its GI50 is > 100 µM (inactive).

What about the GI50 [48] of the same compound?
Its GI50 is > 100 µM (inactive).

And the GI50 [49]?
The GI50 was > 100 µM (inactive).

What about the GI50 [50] of the same compound?
The GI50 was > 100 µM (inactive).

And the GI50 [51]?
Its GI50 is > 100 µM (inactive).

And the GI50 [58]?
Its GI50 is > 100 µM (inactive).

And the GI50 [52]?
The GI50 was > 100 µM (inactive).

And the GI50 [53]?
Its GI50 is > 100 µM (inactive).

What about the GI50 [54] of the same compound?
Its GI50 is > 100 µM (inactive).

What about the GI50 [55] of the same compound?
Its GI50 is > 100 µM (inactive).

And the GI50 [56]?
Its GI50 is > 100 µM (inactive).
